Test [1] relates to S. aureus ATCC 29213. Briefly: Broth microdilution MIC, ATCC QC organism (Example 12). The conditions noted are these: S. aureus ATCC 29213, QC organism. The test is classed as cell-based, Staphylococcus aureus. As for the experimental part:
The in vitro activity of BisEDT and two additional bismuth-thiol investigational agents (MB-2B and MB-6) was determined for isolates of Escherichia coli, Klebsiella pneumoniae, Pseudomonas aeruginosa and Acinetobacter baumannii characterized for extended-spectrum β-lactamases (ESBL) and/or carbapenem resistance. In addition, vancomycin-intermediate Staphylococcus aureus (VISA) were evaluated. The majority of the isolates tested in the current study were multidrug-resistant (MDR) as defined by resistance to at least three different antibiotic classes. Susceptibility to the investigational compounds and relevant comparators was determined by broth microdilution conducted in accordance with guidelines from the Clinical and Laboratory Standards Institute (CLSI; 2,3).
A general note: Broth dilution looks for growth in wells or tubes with falling amounts of substance.

In test [2] the test system is S. aureus ATCC 29213. The conditions noted are these: S. aureus ATCC 29213, QC organism; cited from earlier work.
The subject of test [3] is vancomycin-intermediate Staphylococcus aureus (VISA). Briefly: Broth microdilution MIC (Example 12).
Setting [4] is: Staphylococcus aureus NRS 1 (hVISA).
[5] abbreviates: Staphylococcus aureus NRS 24 (hVISA).

The values that follow come from patent US12186283B2, “Bismuth-thiol compositions and methods of use” (Microbion Corporation, priority 2018, dated 2025).

Values after ≈ are worked out from the molar mass of the structure shown.

As usually defined, the MIC is the lowest concentration that inhibits growth of the organism. Higher therefore signals a less susceptible organism. As for `CCC[C@@H]1C[C@@H](C(=O)N[C@@H]([C@H]2O[C@H](SC)[C@H](O)[C@@H](O)[C@H]2O)[C@H](C)Cl)N(C)C1` [CLI], the minimal inhibitory concentration (MIC) against S. aureus ATCC 29213 [1] was 0.25 mg/L (≈ 0.588 µM); in test [3] (setting [4]) it was greater than 8 mg/L; in test [3] (Staphylococcus aureus NRS 2), greater than 8 mg/L; in test [3] (Staphylococcus aureus NRS 3), greater than 8 mg/L; in test [3] (Staphylococcus aureus NRS 4) it was greater than 8 mg/L; in test [3] (Staphylococcus aureus NRS 13), 0.06 mg/L (≈ 0.141 µM). Besides, the minimal inhibitory concentration (MIC) in test [3] (Staphylococcus aureus NRS 18), in test [3] (Staphylococcus aureus NRS 22), in test [3] (setting [5]) and in test [3] (Staphylococcus aureus NRS 27) was greater than 8 mg/L throughout. The “MIC, QC range” value in the test with S. aureus ATCC 29213 [2] is “(0.06-0.25) μg/mL”.
As to `CCCCCCCCCC(=O)NC(Cc1c[nH]c2ccccc12)C(=O)NC(CC(N)=O)C(=O)NC(CC(=O)O)C(=O)NC1C(=O)NCC(=O)NC(CCCN)C(=O)NC(CC(=O)O)C(=O)NC(C)C(=O)NC(CC(=O)O)C(=O)NCC(=O)NC(CO)C(=O)NC(C(C)CC(=O)O)C(=O)NC(CC(=O)c2ccccc2N)C(=O)OC1C` (centres unmarked) [DAP], the minimal inhibitory concentration (MIC) is 0.5 mg/L (≈ 0.309 µM) against S. aureus ATCC 29213 [1]; 1 mg/L (≈ 0.617 µM) in test [3] (setting [4]); 0.25 mg/L (≈ 0.154 µM) in test [3] (Staphylococcus aureus NRS 2); 1 mg/L (≈ 0.617 µM) in test [3] (Staphylococcus aureus NRS 3); 0.5 mg/L (≈ 0.309 µM) in test [3] (Staphylococcus aureus NRS 4); 2 mg/L (≈ 1.23 µM) in test [3] (Staphylococcus aureus NRS 13). Besides, the MIC amounted to 0.5 mg/L (≈ 0.309 µM) in test [3] (Staphylococcus aureus NRS 18), 2 mg/L (≈ 1.23 µM) in test [3] (Staphylococcus aureus NRS 22), 0.5 mg/L (≈ 0.309 µM) in test [3] (setting [5]) and 0.25 mg/L (≈ 0.154 µM) in test [3] (Staphylococcus aureus NRS 27). Besides, in the test on S. aureus ATCC 29213 [2], the “MIC, QC range” value is recorded as “(0.12-1) μg/mL”.
Consider `CC(=O)NC[C@H]1CN(c2ccc(N3CCOCC3)c(F)c2)C(=O)O1` [LZD], for which the MIC against S. aureus ATCC 29213 [1] stood at 4 mg/L (≈ 11.9 µM); in test [3] (setting [4]), 1 mg/L (≈ 2.96 µM); in test [3] (Staphylococcus aureus NRS 2) it was 4 mg/L (≈ 11.9 µM); in test [3] (Staphylococcus aureus NRS 3), 1 mg/L (≈ 2.96 µM); in test [3] (Staphylococcus aureus NRS 4), 1 mg/L (≈ 2.96 µM); in test [3] (Staphylococcus aureus NRS 13), 2 mg/L (≈ 5.93 µM). Besides, the minimal inhibitory concentration (MIC) in test [3] (Staphylococcus aureus NRS 18) was found to be 1 mg/L (≈ 2.96 µM); in test [3] (Staphylococcus aureus NRS 22), 1 mg/L (≈ 2.96 µM); in test [3] (setting [5]) it was 2 mg/L (≈ 5.93 µM); in test [3] (Staphylococcus aureus NRS 27) it was 2 mg/L (≈ 5.93 µM). Besides, in the test on S. aureus ATCC 29213 [2], the “MIC, QC range” value is “(1-4) μg/mL”.
For `CN[C@H](CC(C)C)C(=O)N[C@H]1C(=O)N[C@@H](CC(N)=O)C(=O)N[C@H]2C(=O)N[C@H]3C(=O)N[C@H](C(=O)N[C@H](C(=O)O)c4cc(O)cc(O)c4-c4cc3ccc4O)[C@H](O)c3ccc(c(Cl)c3)Oc3cc2cc(c3O[C@@H]2O[C@H](CO)[C@@H](O)[C@H](O)[C@H]2O[C@H]2C[C@](C)(N)[C@H](O)[C@H](C)O2)Oc2ccc(cc2Cl)[C@H]1O` [VAN], the MIC in the test on S. aureus ATCC 29213 [1] came out at 0.5 mg/L (≈ 0.345 µM); in test [3] (setting [4]), 4 mg/L (≈ 2.76 µM); in test [3] (Staphylococcus aureus NRS 2) it was 0.5 mg/L (≈ 0.345 µM); in test [3] (Staphylococcus aureus NRS 3), 8 mg/L (≈ 5.52 µM); in test [3] (Staphylococcus aureus NRS 4), 4 mg/L (≈ 2.76 µM); in test [3] (Staphylococcus aureus NRS 13), 2 mg/L (≈ 1.38 µM). Further, the minimum inhibitory concentration (MIC) in test [3] (Staphylococcus aureus NRS 18) was determined as 4 mg/L (≈ 2.76 µM); in test [3] (Staphylococcus aureus NRS 22), 4 mg/L (≈ 2.76 µM); in test [3] (setting [5]), 2 mg/L (≈ 1.38 µM); in test [3] (Staphylococcus aureus NRS 27), 2 mg/L (≈ 1.38 µM). Also, the “MIC, QC range” value in the test with S. aureus ATCC 29213 [2] is “(0.5-2) μg/mL”.
